Key:
human NLRP3 [1] = biological target: T1, human NLRP3 (Homo sapiens (Human), UniProt Q96P20); experiment: Human Whole Blood (hWB) NLRP3 Assay (LPS/ATP, IL-1β); format: cell-based
human NLRP3 [2] = biological target: T1, human NLRP3; experiment: Scintillation Proximity (SPA) NLRP3 Assay: displacement of 3H-MCC950; format: binding; conditions: for IC50: read-out: SPA IC50
human NLRP3 [3] = biological target: T1, human NLRP3; experiment: Human PBMC NLRP3 Assay (LPS priming, ATP stimulation, cytokine measurement); format: cell-based
[4] = human whole blood, LPS/ATP, IL-1β, read-out: hWB IC50
[5] = human PBMC, LPS priming, ATP stimulation, read-out: PBMC IC50
[6] = hWB IC50, human whole blood, LPS/ATP, IL-1β
[7] = PBMC IC50, human PBMC, LPS priming, ATP stimulation

T1 sequence (Q96P20 whole entry): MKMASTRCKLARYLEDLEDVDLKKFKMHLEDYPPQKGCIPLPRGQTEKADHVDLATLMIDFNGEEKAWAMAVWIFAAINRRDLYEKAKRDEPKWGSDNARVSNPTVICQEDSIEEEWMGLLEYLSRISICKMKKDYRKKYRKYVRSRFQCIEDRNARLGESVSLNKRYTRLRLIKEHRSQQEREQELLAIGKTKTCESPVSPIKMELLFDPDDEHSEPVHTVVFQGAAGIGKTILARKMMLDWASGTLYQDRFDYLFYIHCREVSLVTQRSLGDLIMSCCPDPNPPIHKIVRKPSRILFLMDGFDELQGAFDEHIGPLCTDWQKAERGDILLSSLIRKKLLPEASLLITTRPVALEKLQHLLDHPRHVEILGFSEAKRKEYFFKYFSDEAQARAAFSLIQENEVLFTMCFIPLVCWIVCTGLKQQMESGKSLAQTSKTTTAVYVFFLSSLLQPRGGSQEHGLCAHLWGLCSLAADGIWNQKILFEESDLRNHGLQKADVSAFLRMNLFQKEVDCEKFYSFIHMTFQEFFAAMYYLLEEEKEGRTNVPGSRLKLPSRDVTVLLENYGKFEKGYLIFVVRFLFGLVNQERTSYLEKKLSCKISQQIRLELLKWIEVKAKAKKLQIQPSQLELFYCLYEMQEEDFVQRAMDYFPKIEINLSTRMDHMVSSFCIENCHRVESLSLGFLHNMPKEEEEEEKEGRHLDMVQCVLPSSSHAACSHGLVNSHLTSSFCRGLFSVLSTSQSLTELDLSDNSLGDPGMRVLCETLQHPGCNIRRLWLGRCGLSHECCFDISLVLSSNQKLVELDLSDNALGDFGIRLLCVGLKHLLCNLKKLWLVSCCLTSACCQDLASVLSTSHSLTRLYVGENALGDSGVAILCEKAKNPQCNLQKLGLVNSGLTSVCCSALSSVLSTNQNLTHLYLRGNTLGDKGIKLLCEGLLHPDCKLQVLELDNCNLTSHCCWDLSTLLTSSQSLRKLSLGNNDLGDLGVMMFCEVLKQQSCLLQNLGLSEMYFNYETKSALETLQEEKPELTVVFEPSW

| IC50 (human NLRP3 [1]; [4]) | IC50 (human NLRP3 [2]; displacement of 3H-MCC950) | IC50 (human NLRP3 [3]; [5]) | Structure (SMILES) | IC50 (human NLRP3 [3]; [7]) | other results |
| --- | --- | --- | --- | --- | --- |
| > 3000 nM | < 1000 nM | 10 to 100 nM | C[C@@H]1CCN(c2nnn[nH]2)C[C@H](NC(=O)C2(c3ccc(OC(F)(F)F)c(F)c3O)CC2)C1 (single isomer, unassigned) [28A*, 1-(3-fluoro-2-hydroxy-4-(trifluoromethoxy)phenyl)-N-(5-methyl-1-(1H-tetrazol-5-yl)azepan-3-yl)cyclopropane-1-carboxamide] | – | – |
| > 3000 nM | < 1000 nM | < 10 nM | C[C@H]1CC[C@@H](NC(=O)C2(c3ccc(Cl)cc3O)CC2)CN(c2nnn[nH]2)C1 (single isomer, unassigned) [90A*] | – | – |
| < 1000 nM | 1000 to 10000 nM | 100 to 500 nM | O=C(N[C@@H]1CCCN(c2nnn[nH]2)C1)C1(c2ccc(Cl)cc2O)CC1 [Compound 15A, (R)-N-(1-(1H-tetrazol-5-yl)piperidin-3-yl)-1-(4-chloro-2-hydroxyphenyl)cyclopropane-1-carboxamide] | – | IC50 (human NLRP3 [1]; read-out: hWB IC50): 540 nM; fold increase in potency as measured by hWB IC50 (human NLRP3 [1]; relative to Compound 10A): > 13 fold; IC50 (human NLRP3 [2]): 1800 nM; fold increase in binding activity (SPA IC50) (human NLRP3 [2]; relative to Compound 10A): > 5 fold; IC50 (human NLRP3 [3]; read-out: PBMC IC50): 200 nM; fold increase in potency as measured by PBMC IC50 (human NLRP3 [3]; relative to Compound 10A): > 10 fold |
| > 3000 nM | < 1000 nM | 10 to 100 nM | C[C@H]1C[C@@H](NC(=O)C2(c3c(O)cc(C4CC4)cc3OC(F)(F)F)CC2)CN(c2nnn[nH]2)C1 (single isomer, unassigned) [95A*] | – | – |
| > 3000 nM | < 1000 nM | 10 to 100 nM | C[C@H]1C[C@@H](NC(=O)C2(c3ccc(C4CC4(F)F)cc3O)CC2)CN(c2nnn[nH]2)C1 (single isomer, unassigned) [94A*] | – | – |
| 1000 to 2000 nM | < 1000 nM | 10 to 100 nM | C[C@@H]1CCN(c2nnn[nH]2)C[C@H](NC(=O)C2(c3cc(F)c(Cl)cc3O)CC2)C1 (single isomer, unassigned) [29A*, 1-(4-chloro-5-fluoro-2-hydroxyphenyl)-N-(5-methyl-1-(1H-tetrazol-5-yl)azepan-3-yl)cyclopropane-1-carboxamide] | – | – |
| 1000 to 2000 nM | < 1000 nM | 10 to 100 nM | C[C@@H]1CCN(c2nnn[nH]2)C[C@H](NC(=O)C2(c3ccc(OC(F)(F)F)cc3)CC2)C1 (single isomer, unassigned) [57A*] | – | – |
| < 1000 nM | < 1000 nM | 10 to 100 nM | Cc1ccc(C2(C(=O)N[C@@H]3C[C@H](C)CN(c4nnn[nH]4)C3)CC2)c(O)c1 [Compound 20A, 1-(2-hydroxy-4-methylphenyl)-N-((3R,5S)-5-methyl-1-(1H-tetrazol-5-yl)piperidin-3-yl)cyclopropane-1-carboxamide] | – | – |
| < 1000 nM | < 1000 nM | 10 to 100 nM | C[C@@H]1CCN(c2nnn[nH]2)C[C@@H](NC(=O)C2(c3ccc(C(F)(F)F)cc3O)CC2)C1 (single isomer, unassigned) [63B*] | – | – |
| < 1000 nM | < 1000 nM | < 10 nM | Cc1ccc(C2(C(=O)N[C@@H]3C[C@H](C)CCN(c4nnn[nH]4)C3)CC2)c(O)c1 (single isomer, unassigned) [67A*] | – | – |
| > 3000 nM | < 1000 nM | 100 to 500 nM | C[C@@H]1CCN(c2nnn[nH]2)C[C@H](NC(=O)C2(c3ccc(Cl)nc3O)CC2)C1 (single isomer, unassigned) [100A*] | – | – |
| < 1000 nM | < 1000 nM | 10 to 100 nM | C[C@H]1C[C@@H](NC(=O)C2(c3ccc(OC(F)(F)F)cc3O)CC2)CN(c2nnn[nH]2)C1 [Compound 17A, 1-(2-hydroxy-4-(trifluoromethoxy)phenyl)-N-((3R,5S)-5-methyl-1-(1H-tetrazol-5-yl)piperidin-3-yl)cyclopropane-1-carboxamide] | – | IC50 (human NLRP3 [1]; read-out: hWB IC50): 230 nM; IC50 (human NLRP3 [2]): 98 nM; IC50 (human NLRP3 [3]; read-out: PBMC IC50): 17 nM |
| < 1000 nM | < 1000 nM | 10 to 100 nM | C[C@@H]1CCN(c2nnn[nH]2)C[C@H](NC(=O)C2(c3ccc(OC(F)F)cc3)CC2)C1 (single isomer, unassigned) [58A*] | – | – |
| 2000 to 3000 nM | < 1000 nM | 10 to 100 nM | C[C@@H]1CCN(c2nnn[nH]2)C[C@H](NC(=O)C2(c3cnc(Cl)cc3O)CC2)C1 (single isomer, unassigned) [99A*] | – | – |
| < 1000 nM | < 1000 nM | 10 to 100 nM | C[C@@H]1CCN(c2nnn[nH]2)C[C@H](NC(=O)C2(c3ccc(OC(F)(F)F)cc3F)CC2)C1 (single isomer, unassigned) [64A*] | – | – |
| < 1000 nM | < 1000 nM | 10 to 100 nM | C[C@@H]1CCN(c2nnn[nH]2)C[C@H](NC(=O)C2(c3ccc(C(F)(F)F)cc3)CC2)C1 (single isomer, unassigned) [61A*] | – | – |
| < 1000 nM | < 1000 nM | 10 to 100 nM | C[C@H]1C[C@@H](NC(=O)C2(c3ccc(OC(F)F)cc3O)CC2)CN(c2nnn[nH]2)C1 [Compound 19A, 1-(4-(difluoromethoxy)-2-hydroxyphenyl)-N-((3R,5S)-5-methyl-1-(1H-tetrazol-5-yl)piperidin-3-yl)cyclopropane-1-carboxamide] | – | – |
| < 1000 nM | < 1000 nM | < 10 nM | C[C@@H]1CCN(c2nnn[nH]2)C[C@H](NC(=O)C2(c3ccc(C(F)(F)F)cc3O)CC2)C1 (single isomer, unassigned) [63A*] | – | – |
| 1000 to 2000 nM | < 1000 nM | 10 to 100 nM | C[C@@H]1CCN(c2nnn[nH]2)C[C@@H](NC(=O)C2(c3ccc(OC(F)(F)F)cc3O)CC2)C1 (single isomer, unassigned) [62B*] | – | – |

| Structure (SMILES) | IC50 (human NLRP3 [1]; [4]) | IC50 (human NLRP3 [2]; displacement of 3H-MCC950) | IC50 (human NLRP3 [3]; [5]) | IC50 (human NLRP3 [3]; [7]) | other results |
| --- | --- | --- | --- | --- | --- |
| C[C@@H]1C[C@@H](NC(=O)C2(c3ccc(OC(F)(F)F)cc3)CC2)[C@H]2CC[C@@H]1N2c1nnn[nH]1 [82A*, N-((1R,2R,4R,5S)-4-methy1-8-(1H-tetrazol-5-yl)-8-azabicyclo[3.2.1]octan-2-yl)-1-(4-(trifluoromethoxy)phenyl)cyclopropane-1-carboxamide] | – | < 1000 nM | – | < 10 nM | IC50 (human NLRP3 [1]; [6]): < 1000 nM |
| C[C@@H]1C[C@@H](NC(=O)C2(c3ccc(C(F)F)cc3)CC2)[C@H]2CC[C@@H]1N2c1nnn[nH]1 [86A*, 1-(4-(difluoromethyl)phenyl)-N-((1R,2R,4R,5S)-4-methy1-8-(1H-tetrazol-5-yl)-8-azabicyclo[3.2.1]octan-2-yl)cyclopropane-1-carboxamide] | – | < 1000 nM | – | 10 to 100 nM | IC50 (human NLRP3 [1]; [6]): < 1000 nM |
| O=C(N[C@@H]1CCC[C@@H]2CC[C@H]1N2c1nnn[nH]1)C1(c2ccc(C(F)(F)F)cc2O)CC1 [88A*, N-((1R,2R,6R)-9-(1H-tetrazol-5-yl)-9-azabicyclo[4.2.1]nonan-2-yl)-1-(2-hydroxy-4-(trifluoromethyl)phenyl)cyclopropane-1-carboxamide] | – | < 1000 nM | – | < 10 nM | IC50 (human NLRP3 [1]; [6]): < 1000 nM |
| C[C@@H]1C[C@@H](NC(=O)C2(c3ccc(SC(F)F)cc3)CC2)[C@H]2CC[C@@H]1N2c1nnn[nH]1 [85A*, 1-(4-((difluoromethyl)thio)phenyl)-N-((1R,2R,4R,5S)-4-methyl-8-(1H-tetrazol-5-yl)-8-azabicyclo[3.2.1]octan-2-yl)cyclopropane-1-carboxamide] | – | < 1000 nM | – | < 10 nM | IC50 (human NLRP3 [1]; [6]): < 1000 nM |
| O=C(N[C@@H]1CC[C@H]2CC[C@@H]1N2c1nnn[nH]1)C1(c2ccc(Cl)c(F)c2O)CC1 [76C*, N-((1S,2R,5S)-8-(1H-tetrazol-5-yl)-8-azabicyclo[3.2.1]octan-2-yl)-1-(4-chloro-3-fluoro-2-hydroxyphenyl)cyclopropane-1-carboxamide] | 1000 to 2000 nM | < 1000 nM | 100 to 500 nM | – | – |
| Cc1ccc(C2(C(=O)N[C@@H]3C[C@@H](C)[C@@H]4CC[C@H]3N4c3nnn[nH]3)CC2)cc1 [87A*, N-((1R,2R,4R,5S)-4-methy1-8-(1H-tetrazol-5-yl)-8-azabicyclo[3.2.1]octan-2-yl)-1-(p-tolyl)cyclopropane-1-carboxamide] | 1000 to 2000 nM | < 1000 nM | – | 10 to 100 nM | – |
| O=C(N[C@@H]1CCC[C@@H]2CC[C@H]1N2c1nnn[nH]1)C1(c2ccc(C3CC3)cc2O)CC1 [93A*, N-((1R,2R,6R)-9-(1H-tetrazol-5-yl)-9-azabicyclo[4.2.1]nonan-2-yl)-1-(4-cyclopropyl-2-hydroxyphenyl)cyclopropane-1-carboxamide] | – | < 1000 nM | – | 10 to 100 nM | IC50 (human NLRP3 [1]; [6]): 2000 to 3000 nM |
| C[C@@H]1C[C@@H](NC(=O)C2(c3ccc(C4CC4)c(F)c3O)CC2)[C@H]2CC[C@@H]1N2c1nnn[nH]1 [83A*, 1-(4-cyclopropy1-3-fluoro-2-hydroxyphenyl)-N-((1R,2R,4R,5S)-4-methy1-8-(1H-tetrazol-5-yl)-8-azabicyclo[3.2.1]octan-2-yl)cyclopropane-1-carboxamide] | – | < 1000 nM | – | < 10 nM | IC50 (human NLRP3 [1]; [6]): < 1000 nM |
| C[C@@H]1C[C@@H](NC(=O)C2(c3ccc(Cl)cc3)CC2)[C@H]2CC[C@@H]1N2c1nnn[nH]1 [80A*, 1-(4-chlorophenyl)-N-((1R,2R,4R,5S)-4-methyl-8-(1H-tetrazol-5-yl)-8-azabicyclo[3.2.1]octan-2-yl)cyclopropane-1-carboxamide] | – | < 1000 nM | – | 10 to 100 nM | IC50 (human NLRP3 [1]; [6]): < 1000 nM; IC50 (human NLRP3 [1]; read-out: hWB IC50): 840 nM; fold increase in potency as measured by hWB IC50 (human NLRP3 [1]; relative to Compound 46A): 3 fold; IC50 (human NLRP3 [2]): 130 nM; fold increase in binding activity (SPA IC50) (human NLRP3 [2]; relative to Compound 46A): 6.6 fold; IC50 (human NLRP3 [3]; PBMC IC50): 10 nM; fold increase in potency as measured by PBMC IC50 (human NLRP3 [3]; relative to Compound 46A): 10 fold |
| O=C(N[C@@H]1CC[C@H]2CC[C@@H]1N2c1nnn[nH]1)C1(c2ccc(Cl)cc2O)CC1 [75C*, N-((1S,2R,5S)-8-(1H-tetrazol-5-yl)-8-azabicyclo[3.2.1]octan-2-yl)-1-(4-chloro-2-hydroxyphenyl)cyclopropane-1-carboxamide] | 1000 to 2000 nM | < 1000 nM | – | 10 to 100 nM | – |

Reference: patent US20260007684A1, “AMIDE DERIVATIVES FOR INHIBITING NLRP3 AND USES THEREOF” (Ventus Therapeutics U.S., Inc., priority 2023, published 2026)
